The source of these data is patent US20230048678A1, “ICAN DERIVATIVES FOR ANTIFUNGAL USE” (DEBRECENI EGYETEM, priority 2019, published 2023).

In series [1] the test system is C. albicans SC5314, C. krusei ATCC 6258 and C. parapsilosis ATCC 22019. Description: CLSI broth microdilution, MIC summarised over the three Candida test strains. It is filed as cell-based. The note with it: value or range over the three Candida strains of Table 1, total inhibition. As to the method: (§1) ICAN has 3 key moieties, namely the amino, naphthalene and isonitrile. To find out which ones of them are essential for the antifungal behavior and to design more efficient derivatives, comparative studies were carried out, where one of the moieties was exchanged or eliminated. All ICAN derivatives were tested against C. albicans SC5314, C. krusei ATCC 6258 and C. parapsilosis ATCC 22019. The antifungal agents were dissolved in 100% DMSO and diluted further in RPMI-1640 (with L-glutamine but without bicarbonate) and buffered to pH 7.0 with 0.165 M morpholinopropanesulfonic acid (MOPS). MICs were read visually after 48-h incubation at 35° C. using the partial (50%) inhibition (for ICAN derivatives) (PI) and total inhibition (for AMB and ICAN derivatives) (TI) criteria. MICs were determined at least twice.
(§2) The tested C. albicans, C. tropicalis, C. parapsilosis, C. glabrata and C. krusei ATCC strains and clinical isolates are listed in Table 2. MICs were determined according to the CLSI M27-A3 [22]. Antifungal agents were dissolved in 100% DMSO and diluted further in RPMI-1640 (with L-glutamine but without bicarbonate) (Sigma, Budapest, Hungary), and buffered to pH 7.0 with 0.165 M morpholinopropanesulfonic acid (MOPS; Sigma, Budapest, Hungary). The final concentration ranges used for AMB and ICAN derivatives were 0.125 to 4 μg/ml and 0.04 to 20 μg/ml, respectively. Yeast cell suspensions were prepared in RPMI 1640 medium and were adjusted to give a final inoculum concentration of 0.5×10^3 to 2.5×10^3 cells/ml. MICs were read visually after 48-h incubation at 35° C. using the partial (50%) inhibition (for ICAN derivatives) (PI) and total inhibition (for AMB and ICAN derivatives) (TI) criteria. MICs were determined at least twice. For amphotericin B isolates with MIC values of ≤2 mg/L were considered wild-types. [Pfaller M A, 2012]
In general terms: Dilution methods test growth across graded concentrations, often in twofold steps.

In a further series the test system is HaCat cells. Description: HaCat cell damage during time-lapse imaging. It counts as cell-based, human. Particulars: under 24 hours, MICAN-treated infected cultures. The text has this: (§3) As we mentioned in the Background art, studies have been carried out to successfully utilize 1-N-methylamino-5-isocyanonaphthalene (MICAN) as vital cell dye on different human cell lines [Nagy Z L, 2018]. […] Since these dyes are nonpolar, they are expected to easily bind to and stain the nonpolar chitin in the cell wall of different fungi species. We tested this assumption on common yeast from a local shop, and much to our surprise after staining, the yeast cells stopped growing and died in a short time. Repeated experiments led to the same conclusion; however, the applied dye concentration was well below the LD50 determined for human cells. We assumed that these compounds may have antifungal effect, therefore C. albicans, one of the most common human pathogenic fungi was selected for further tests. HaCat cell cultures (spontaneously transformed aneuploid immortal keratinocyte cells from adult human skin) were infected with C. albicans 3666 (same isolate as used in animal experiments) and were treated with different concentrations of MICAN dissolved in DMSO. The fungal growth was followed by time lapse imaging for 24 hours. […] It should be noted, however, that in the case of the untreated HaCat cells the fungal growth exceeded 1000% (24 h) calculated from the hyphal area (FIG. 1b, DMSO control).

The next series concerns C. krusei ATCC 6258. Description: CLSI broth microdilution susceptibility (Table 1). It counts as cell-based. Particulars: 48 h, 35° C. As to the method:
as §1, §2

For another series, the system named is C. albicans SC5314. Description: CLSI broth microdilution susceptibility (Table 1). Particulars: 48 h, 35° C. It counts as cell-based. As to the method: as §1, §2
Series [2] concerns C. parapsilosis ATCC 22019. Description: CLSI broth microdilution susceptibility (Table 1). The note with it: 48 h, 35° C. It counts as cell-based. As to the method: as §1, §2
The next series has as its system human cell cultures. Description: MTT bio assay cytotoxicity. It counts as cell-based. Particulars: MTT bio assay technique.
Another series relates to C. albicans 3666. Description: Time-lapse imaging of fungal growth in infected HaCat cultures. It is filed as cell-based. The note with it: 7.5 μg/ml, HaCat cells infected with C. albicans 3666, 24 h; DMSO control exceeded 1000%. The source says:
As we mentioned in the Background art, studies have been carried out to successfully utilize 1-N-methylamino-5-isocyanonaphthalene (MICAN) as vital cell dye on different human cell lines [Nagy Z L, 2018]. […] Since these dyes are nonpolar, they are expected to easily bind to and stain the nonpolar chitin in the cell wall of different fungi species. We tested this assumption on common yeast from a local shop, and much to our surprise after staining, the yeast cells stopped growing and died in a short time. Repeated experiments led to the same conclusion; however, the applied dye concentration was well below the LD50 determined for human cells. […] It should be noted, however, that in the case of the untreated HaCat cells the fungal growth exceeded 1000% (24 h) calculated from the hyphal area (FIG. 1b, DMSO control). […]
Image analysis plug-ins were developed by a Java-based image processing software, The ImageJ v1.39d (US National Institutes of Health) program enabled the quantitative analysis of fungi. The software is requesting a set of data for the analysis from the user, along with the directory in which the bank of images to be analysed are contained. Image processing and quantitative image analysis were carried out as previously described [Nagy G, 2014]. […]

Series [3] relates to commercial strain of Saccharomyces cerevisiae. Description: Staining/growth of common yeast. It is filed as cell-based.
From the text: as §3

For `[C-]#[N+]c1cccc2c(NC)cccc12` [MICAN, N-methyl-1-amino-5-isocyanonaphthalene], the MICTI is 0.75 to 1.25 µg/mL in series [1], 1.25 µg/mL against C. krusei ATCC 6258 (total inhibition), 1.25 µg/mL against C. albicans SC5314 (total inhibition) and 0.75 µg/mL in series [2] (total inhibition). In the series on HaCat cells, the “damage of treated HaCat cells” value is recorded as “no sign of damage”. Besides, the MICPI against C. krusei ATCC 6258 (partial (50%) inhibition) is 0.15 µg/mL; in the series on C. albicans SC5314 (partial (50%) inhibition), 0.3 µg/mL; in series [2] (partial (50%) inhibition) it was 0.15 µg/mL. For the same molecule, the LD50 in the series with human cell cultures came out at 18 µg/mL. In the series with C. albicans 3666, the “fungal growth calculated from the hyphal area” value is listed as ~30%. In addition, the “antifungal effect on yeast” value in series [3] is given as “effective”.
